Several values for one entry are separate records, joined by “and”; a condition that tells them apart may be missing. Equal values may be shown once.
Legend:
[1] = Active loading of DB-67 into Ca(OAc)2 DSPC/m-PEG DSPE vesicles (Example 15); settings: end of loading
[2] = Active loading of DB-67 into liposomes, calcium acetate gradient (Example 14); settings: liposomes made by active loading procedure, pH and calcium ion gradient, 40° C.
[3] = pH 7.4
[4] = after intravenous administration, animal data; cited from earlier work
[5] = after 24 hrs, novel approach (active loading)

SMILES: CC[C@@]1(O)C(=O)OCc2c1cc1n(c2=O)Cc2c-1nc1ccc(O)cc1c2[Si](C)(C)C(C)(C)C [DB-67, silatecan 7-t-butyldimethylsilyl-10-hydroxycamptothecin]
- intravesicular DB-67 concentration [1]: ~21 mM and ~10 mg/mL
- suspension drug concentration (all drug being entrapped) [2]: ≤ 3 mM
- half-life for release (liposome retention) [3]: 22 ± 6 h
- lactone to total AUC [4]: > 90%
- retained drug [5]: approximately 50%
